From patent US20150216903A1, “COMPOUNDS FOR IMPROVED VIRAL TRANSDUCTION” (BLUEBIRD BIO, INC., priority 2012, published 2015)

Experiments:
[1] = system: CD34+ cells; assay: Vector Copy Number analysis (qRT-PCR, viral LTR vs human beta-actin) after GFP+ lentivirus transduction; type: cell-based
Protocol: Pre-stimulated cells (Example 1) were counted after 18-24 hours of culture. The cells were collected and spun for 5 minutes at 1500 RPM. 1.2×10^6 pre-stimulated CD34^+ cells were resuspended in 60 uL 10× cytokines (1000 ng/mL SCF, 1000 ng/mL TPO, 1000 ng/mL FltL, and 300 ng/mL IL-3), 7.8 uL protamine sulfate, 111 uL viral supernatant, and 361.2 uL SCGM. 90 uL cell/virus suspension (about 200,000 cells) was added to each well of a standard non-adherent 96-well plate. dmPGE2 was added during this viral transduction step at a final concentration of 100 uM, 50 uM, 25 uM, 12.5 uM, 1 uM, or 0 uM.
After 24 hours of culture with virus and dmPGE2, cells were washed prior to subsequent functional validation assays. Washing was performed by transferring cells to a 96-well U-bottom plate and spinning for 5 minutes at 1500 RPM in a standard tabletop centrifuge. Media was aspirated and cells were resuspended in 200 uL SCGM. Cells were spun again for 5 minutes at 1500 RPM and media was aspirated. Cells were again resuspended in 200 uL SCGM then spun for 5 minutes at 1500 RPM, and again the media was aspirated. Particular functional validation assays are described below.
Washed cells were resuspended in 200 uL SCGM+lx cytokines (as described in Example 1) and transferred to a standard 12-well non-adherent tissue culture plate containing an additional 800 uL SCGM+lx cytokines Cells were maintained for an additional 6 days in a standard humidified tissue culture incubator (5% CO2) and then subjected Vector Copy Number analysis (Example 5) and FACS analysis. For FACS analysis, cells were assayed for the presence of a virally-encoded transgene, green fluorescent protein (GFP). The frequency of the virally-labeled cells within the pool of cultured cells was quantified as the frequency of GFP+ cells within the population. The mean fluorescence intensity of labeled cells was quantified.
Briefly, total genomic DNA was isolated from cells through standard protocols (for example, through DNEasy columns from Qiagen). Genomic DNA was subjected to quantitative real-time polymerase chain reaction (qRT-PCR) with TaqMan probes for viral LTR and human beta-actin. The Ct values for viral signal and beta-actin signal were normalized to a standardized control, and the number of viral copies per copy of beta actin were calculated. A linear relationship between the vector copy number and the mean fluorescence intensity (Example 4) was observed when a viral construct that encodes GFP was used.
Tables 3A-C indicate the dose-response of dmPGE2 in promoting viral transduction of CD34+ cells for three separate experiments. CD34+ cells were thawed and pre-stimulated with SCF, TPO, FltL, and IL3, then transduced (A) with GFP+ lentivirus at a multiplicity of infection of 25, (B) with GFP+ lentivirus at a multiplicity of infection of 5, or (C) transduced with an ALD (ABCD1)-expressing lentivirus at a multiplicity of infection of 25. Cells were exposed to dmPGE2 during the viral transduction step (24-48 hours of culture). Cells were then washed and analyzed by flow cytometry and PCR after approximately 1 week in culture. The percentage of cells positive for GFP (A, B) or ALD (C) via FACS staining is indicated, along with the mean fluorescent intensity (MFI) and vector copy number (VCN) (A, B).

[2] = system: CD34+ cells; assay: Time-course and dose-response of dmPGE2 in promoting viral transduction (GFP+ lentivirus, flow cytometry); type: cell-based, human; conditions: for percentage of cells positive for GFP: MOI 25
Protocol: MCD-34+ cells were thawed and pre-stimulated with SCF, TPO, FltL and IL3, then transduced with GFP+ lentivirus at a multiplicity of infection of 25. Cells were exposed to dmPGE2 during the viral transduction step (24-25 hours of culture; 24-26 hours of culture; 24-28 hours of culture; or 24-48 hours of culture) and then washed and analyzed by flow cytometry after approximately 1 week in culture. Alternatively, cells were exposed to dmPGE2 during the pre-stimulation step (22-24 hours of culture; 23-24 hours of culture).

[3] = system: HSCs; conditions: published data, Goessling et al., Cell Stem Cell 2011; cited from earlier work

CCCCC(C)(C)[C@H](O)/C=C/[C@H]1[C@H](O)CC(=O)[C@@H]1C/C=C\CCCC(=O)O [dmPGE2, 16,16-dimethyl PGE2]
VCN ([1]; dmPGE2 12.5 uM during transduction, GFP lentivirus MOI 5): 0.18 | VCN ([1]; dmPGE2 12.5 uM during transduction, GFP lentivirus MOI 25): 1.5 | VCN ([1]; dmPGE2 25 uM during transduction, GFP lentivirus MOI 5): 0.21 | VCN ([1]; dmPGE2 25 uM during transduction, GFP lentivirus MOI 25): 1.7 | VCN ([1]; dmPGE2 50 uM during transduction, GFP lentivirus MOI 5): 0.715 | VCN ([1]; dmPGE2 50 uM during transduction, GFP lentivirus MOI 25): 2.2 | VCN ([1]; dmPGE2 100 uM during transduction, GFP lentivirus MOI 5): 0.83 | VCN ([1]; dmPGE2 100 uM during transduction, GFP lentivirus MOI 25): 3.55 | percentage of cells positive for GFP ([2]; dmPGE2 1 uM, Pre-Stim w/PGE2 Minus 2 Hr (22-24 hours of culture)): 25.74% | percentage of cells positive for GFP ([2]; dmPGE2 1 uM, Virus and PGE2 24 Hr (24-48 hours of culture)): 32.03% | percentage of cells positive for GFP ([2]; dmPGE2 1 uM, Virus and PGE2 Plus 1 Hr (24-25 hours of culture)): 2.94% | percentage of cells positive for GFP ([2]; dmPGE2 1 uM, Virus and PGE2 Plus 2 Hr (24-26 hours of culture)): 7.17% | percentage of cells positive for GFP ([2]; dmPGE2 1 uM, Virus and PGE2 Plus 4 Hr (24-28 hours of culture)): 21.10% | percentage of cells positive for GFP ([2]; dmPGE2 12.5 uM, Pre-Stim w/PGE2 Minus 1 Hr (23-24 hours of culture)): 22.13% | percentage of cells positive for GFP ([2]; dmPGE2 12.5 uM, Pre-Stim w/PGE2 Minus 2 Hr (22-24 hours of culture)): 30.64% | percentage of cells positive for GFP ([2]; dmPGE2 12.5 uM, Virus and PGE2 24 Hr (24-48 hours of culture)): 47.42% | percentage of cells positive for GFP ([2]; dmPGE2 12.5 uM, Virus and PGE2 Plus 1 Hr (24-25 hours of culture)): 1.97% | percentage of cells positive for GFP ([2]; dmPGE2 12.5 uM, Virus and PGE2 Plus 2 Hr (24-26 hours of culture)): 5.32% | percentage of cells positive for GFP ([2]; dmPGE2 12.5 uM, Virus and PGE2 Plus 4 Hr (24-28 hours of culture)): 28.08% | percentage of cells positive for GFP ([2]; dmPGE2 25 uM, Pre-Stim w/PGE2 Minus 1 Hr (23-24 hours of culture)): 24.05% | percentage of cells positive for GFP ([2]; dmPGE2 25 uM, Pre-Stim w/PGE2 Minus 2 Hr (22-24 hours of culture)): 31.90% | percentage of cells positive for GFP ([2]; dmPGE2 25 uM, Virus and PGE2 24 Hr (24-48 hours of culture)): 50.69% | percentage of cells positive for GFP ([2]; dmPGE2 25 uM, Virus and PGE2 Plus 1 Hr (24-25 hours of culture)): 1.76% | percentage of cells positive for GFP ([2]; dmPGE2 25 uM, Virus and PGE2 Plus 2 Hr (24-26 hours of culture)): 4.76% | percentage of cells positive for GFP ([2]; dmPGE2 25 uM, Virus and PGE2 Plus 4 Hr (24-28 hours of culture)): 27.46% | percentage of cells positive for GFP ([2]; dmPGE2 50 uM, Pre-Stim w/PGE2 Minus 1 Hr (23-24 hours of culture)): 22.98% | percentage of cells positive for GFP ([2]; dmPGE2 50 uM, Pre-Stim w/PGE2 Minus 2 Hr (22-24 hours of culture)): 31.85% | percentage of cells positive for GFP ([2]; dmPGE2 50 uM, Virus and PGE2 24 Hr (24-48 hours of culture)): 54.63% | percentage of cells positive for GFP ([2]; dmPGE2 50 uM, Virus and PGE2 Plus 1 Hr (24-25 hours of culture)): 1.85% | percentage of cells positive for GFP ([2]; dmPGE2 50 uM, Virus and PGE2 Plus 2 Hr (24-26 hours of culture)): 4.23% | percentage of cells positive for GFP ([2]; dmPGE2 50 uM, Virus and PGE2 Plus 4 Hr (24-28 hours of culture)): 27.45% | percentage of cells positive for GFP ([2]; dmPGE2 100 uM, Pre-Stim w/PGE2 Minus 1 Hr (23-24 hours of culture)): 25.14% | percentage of cells positive for GFP ([2]; dmPGE2 100 uM, Pre-Stim w/PGE2 Minus 2 Hr (22-24 hours of culture)): 34.85% | percentage of cells positive for GFP ([2]; dmPGE2 100 uM, Virus and PGE2 24 Hr (24-48 hours of culture)): 76.44% | percentage of cells positive for GFP ([2]; dmPGE2 100 uM, Virus and PGE2 Plus 1 Hr (24-25 hours of culture)): 2.48% | percentage of cells positive for GFP ([2]; dmPGE2 100 uM, Virus and PGE2 Plus 2 Hr (24-26 hours of culture)): 4.02% | percentage of cells positive for GFP ([2]; dmPGE2 100 uM, Virus and PGE2 Plus 4 Hr (24-28 hours of culture)): 21.57% | improvement of viral transduction ([2]; time windows commonly used for promoting hematopoietic stem cell activity, on the order of one to two hours): unable to improve viral transduction | promotion of viral transduction of HSCs [3]: unable to promote viral transduction of HSCs
